Source: patent US9394299B2, “Rilyazine derivatives and compositions for the treatment of cancer” (Warner Babcock Institute for Green Chemistry, LLC, priority 2013, dated 2016)
“Also recorded” adds a separate entry of the source. Read-outs that look alike come from different tables or passages of the source.

System: 60 cell lines (human tumor cell lines of the cancer screening panel)
Experiment: NCI 60 cell line screening, single point dosing at 10 μM (SRB)
Assay type: cell-based
Details: for GI50: Homo sapiens, read-out: GI50 (NCI Results, single point, 10 μM); for Delta of Growth Percent across all cell lines / Mean Growth Percent across all cell lines: single dose 10^−5 M
Method: The screening is a two-stage process, beginning with the evaluation of all compounds against 60 cell lines at a single dose of 10^−5 M.
The human tumor cell lines of the cancer screening panel are grown in RPMI 1640 medium containing 5% fetal bovine serum and 2 mM L-glutamine. Cells are inoculated into 96 well microtiter plates in 100 μL at plating densities ranging from 5,000 to 40,000 cells/well depending on the doubling time of individual cell lines. After cell inoculation, the microtiter plates are incubated at 37° C., 5% CO2, 95% air and 100% relative humidity for 24 h prior to addition of experimental drugs.
After 24 h, two plates of each cell line are fixed in situ with TCA, to represent a measurement of the cell population for each cell line at the time of drug addition Time Zero (Tz). Experimental drugs are solubilized in dimethyl sulfoxide:glycerol 9:1 at 400-fold the desired final maximum test concentration and stored frozen at −70° C. prior to use. At the time of drug addition, an aliquot of frozen concentrate is thawed and diluted to twice the desired final maximum test concentration with complete medium containing 50 μg/ml gentamicin. Additional four, 10-fold or ½ log serial dilutions are made to provide a total of five drug concentrations plus control. Aliquots of 100 μl of these different drug dilutions are added to the appropriate microtiter wells already containing 100 μl of medium, resulting in the required final drug concentrations.
Positive control is prepared by adding the known anti-tumor agent adriamycin, NSC 123127, prepared and stored the same as the compounds for testing.
Following drug addition, the plates are incubated for an additional 48 h at 37° C., 5% CO2, 95% air, and 100% relative humidity. For adherent cells, the assay is terminated by the addition of cold TCA. Cells are fixed in situ by the gentle addition of 50 μl of cold 50% (w/v) TCA (final concentration, 10% TCA) and incubated for 60 minutes at 4° C. The supernatant is discarded, and the plates are washed five times with tap water and air dried. Sulforhodamine B (SRB) solution (100 μl) at 0.4% (w/v) in 1% acetic acid is added to each well, and plates are incubated for 10 minutes at room temperature. After staining, unbound dye is removed by washing five times with 1% acetic acid and the plates are air dried. Bound stain is subsequently solubilized with 10 mM trizma base, and the absorbance is read on an automated plate reader at a wavelength of 515 nm. For suspension cells, the methodology is the same except that the assay is terminated by fixing settled cells at the bottom of the wells by gently adding 50 μl of 80% TCA (final concentration, 16% TCA).
For the 1-dose 60 cell testing, the Growth Percent is calculated for each cell line/drug combination from the absorbance measurement for the no-drug control (C), the absorbance at time zero (Tz) and the absorbance measurement after incubation of the cells in the presence of drug (Ti): Growth Percent=[(Ti−Tz)/(C−Tz)]×100 for cell line/drug combinations for which Ti≧Tz. Growth Percent=[(Ti−Tz)/Tz]×100 for cell line/drug combinations for which Ti<Tz.
Calculation of the Growth Percent by these equations allows detection of both growth inhibition (Growth Percent values between 0 and 100) and lethality (Growth Percent values less than 0). For example, a Growth Percent value of 100 means no growth inhibition. A Growth Percent value of 40 would mean 60% growth inhibition. A Growth Percent value of 0 means no net growth over the course of the experiment, or “cytostatic”, no change by growth or cell death. A Growth Percent value of −40 would mean 40% lethality. A Growth Percent value of −100 means all cells are dead.
For 1-dose 60 cell testing, the Mean Growth Percent, Delta and Range across all 60 cell lines are also calculated. The Deviation of each cell line/drug combination from the Mean is also calculated and plotted: Deviation=Mean Growth Percent−Growth Percent […]

[1] = single point 10 μM, 60 cell lines

Row | SMILES | GI50 [1] | Delta of Growth Percent across all cell lines (60 cell lines) | Mean Growth Percent across all cell lines (60 cell lines) | anti-proliferative effect / growth inhibition (in words) [1] | GI50 (60 cell)
1 | S=c1c2cccnc2c(-c2ccccn2)nn1C1CCCCC1 [RL-2, 6-cyclohexyl-8-(pyridin-2-yl)pyrido[2,3-d]pyridazine-5(6H)-thione] | > 10 µM | 30.65 | 99.96% | little to no effect on cell growth; also recorded: little to no appreciable anti-proliferative effects | 
2 | O=c1c2cccnc2c(-c2ccccn2)nn1C1CCCCC1 [RL-1, 6-cyclohexyl-8-(pyridin-2-yl)pyrido[2,3-d]pyridazin-5(6H)-one] |  | 11.75 | 104.31% | little to no effect on cell growth; also recorded: little to no appreciable anti-proliferative effects | > 10 µM
3 | O=c1c2ncccc2c(-c2ccccn2)nn1C1CCCCC1 [RL-3, 7-Cyclohexyl-5-(pyridin-2-yl)pyrido[2,3-d]pyridazin-8(7H)-one] |  | 24.63 | 101.11% | little to no effect on cell growth; also recorded: little to no appreciable anti-proliferative effects | > 10 µM
